Our source for the EC50 values is US20220289746A1, “PYRROLIDINE DERIVATIVES” (Hoffmann-La Roche Inc., priority 2019, published 2022).

Each structure is given as a SMILES string.

The term EC50 denotes the concentration giving half of the maximal effect.

Assay [1] addresses T1, human M4 receptor (Homo sapiens, UniProt P08173).
T1 sequence (P08173 1-479): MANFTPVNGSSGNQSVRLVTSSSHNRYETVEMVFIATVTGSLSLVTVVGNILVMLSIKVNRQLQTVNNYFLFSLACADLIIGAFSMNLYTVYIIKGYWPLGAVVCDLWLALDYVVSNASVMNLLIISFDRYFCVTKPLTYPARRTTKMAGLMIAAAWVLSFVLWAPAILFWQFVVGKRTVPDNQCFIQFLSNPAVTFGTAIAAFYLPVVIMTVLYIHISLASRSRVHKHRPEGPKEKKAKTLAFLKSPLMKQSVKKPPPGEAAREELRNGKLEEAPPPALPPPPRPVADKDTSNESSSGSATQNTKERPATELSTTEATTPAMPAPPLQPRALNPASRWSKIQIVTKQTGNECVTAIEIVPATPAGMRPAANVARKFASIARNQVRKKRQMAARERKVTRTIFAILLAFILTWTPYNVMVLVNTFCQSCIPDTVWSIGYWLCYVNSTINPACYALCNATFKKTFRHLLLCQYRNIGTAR
Nature of the assay: cAMP assay for M4 positive allosteric modulators (M4 PAM cAMP assay). The class given is cell-based. More on the design: expressed in transfected cells; host or cells: CHO-K1. The note with it: Table 1; CHO-K1 cells expressing human M4; forskolin 7.5 μM + acetylcholine EC20 (0.2 nM). The procedure:
The potency of M4 PAMs was determined using a cell-based cyclic adenosine monophosphate assay. The assay was performed with CHO-Kl cells stably expressing untagged human M4 receptor and cAMP was quantified using the Nano-TRF Detection Assay kit (Roche, Cat. No. 05214386) as described in the kit instructions. The cells were grown in Ham's F-12 Nutrient mix supplemented with 10% FBS and 200 μg/ml geneticin until they reached 80% confluency. The cells were washed with PBS, detached with accutase and resuspended in assay buffer consisting of HBSS and 0.1% BSA. They were then seeded in black 384-well plates (Corning, Cat. No. 3764) at a density of 20,000 cells/20 μl per well until the addition of compounds.
Test compounds were serially diluted 1:2 in 100% DMSO and spotted in 384-well plates at 0.5 μl/well. The compounds were then diluted in water containing IBMX (Sigma, Cat. No. 17018) and a sample (5 μl) was added to the cells for 15 minutes at 37° C./5% CO2. After this incubation the cells were stimulated with a combination of forskolin (7.5 μM) and acetylcholine EC20 (0.2 nM) in assay buffer for 30 minutes at 37° C./5% CO2. The assay was stopped by adding cAMP detection mix (15 μl/well, containing detergents for cell lysis) for one hour at RT.
The test plates were read using a SpectraMax i3x reader (Molecular Devices). The exported raw data was used to calculate the FRET signal based on the P-factor as per cAMP kit instructions. The data was normalized to the activity of acetylcholine plus forskolin, with 2 nM of acetylcholine plus 7.5 μM forskolin defined as 100% activity. Dose response curves were fitted to the percent activity data of the compounds using a sigmoidal dose response model (XLfit, IDBS) and the data were reported as EC50 and percent efficacy.

Assay [2] deals with T1, human M4 receptor. Briefly: Calcium flux assay using fluorescent imaging (M4 PAM FLIPR assay). In kind it is cell-based. More on the design: expressed in transfected cells; host or cells: CHO (monoclonal line, clone 2). The note with it: Table 1; CHO cells expressing human M4+Gqi5; acetylcholine EC20. The procedure: CHO cells were transfected with expression plasmid encoding the human M4 receptor and a Gqi5 construct to redirect Gi signaling to calcium. Stable cells were cloned by limiting dilution to yield a monoclonal cell line expressing human M4+Gqi5 (clone 2). The stable cells were grown in DMEM containing 10% FBS, 200 ug/ml Geneticin and 800 ug/ml Hygromycin at 37° C. in a 10% CO2 incubator at 95% humidity.
Calcium Flux Assay Using Fluorescent Imaging (“M4 PAM FLIPR” Assay)
On the afternoon before the assay, cells were plated at a density of 50,000 cells/well into black 96 well plates with clear bottoms to yield a confluent monolayer the next day. Hanks balanced salt solution, without phenol red, containing 20 mM HEPES (pH 7.3) and 2.5 mM probenecid (assay buffer) was prepared fresh for each experiment. Compound dilutions were made using a Beckman Biomek 2000 laboratory automation workstation, in assay buffer. The dye-loading buffer consisted of a final concentration of 2 μM Fluo-4-AM (dissolved in DMSO and pluronic acid) and 65 μg/ml amidoblack in assay buffer. The existing culture media was removed from the wells and 100 μl of the dye-loading buffer was added to each well and incubated for approximately 90 min at 37° C. in a 5% CO2 incubator at 95% humidity.
Calcium flux in the dye-loaded cells was measured with the fluorescence reader Hamamatsu FDSS 7000. To test compounds as agonists, compound addition (25 μl) was made 10 s into the fluorescent measurements and fluorescent response was recorded for 3 minutes. The fluorescence data was expressed as percentage of the fluorescence obtained by an EC100 concentration (3 μM) of the endogenous full agonist acetylcholine. Each test compound concentration-response curve was constructed using a four parameter logistic equation in Microsoft Excel XLFit as follows:
Y=Minimum+((Maximum−Minimum)/(1+10^(LogEC50−X)nH)).
The concentration of agonist that produced a half-maximal response is represented by the EC50 value. Maximum and minimum are the maximum and minimum fluorescence signal in % respectively. nH is the Hill slope.
To measure positive allosteric modulator activity 25 μl of an EC20 concentration of the endogenous agonist acetylcholine is added to the cells already pre-incubated with the test compound for 15 minutes.
The M4 PAM dose response is constructed using the agonist dose-response equation above. The concentration of PAM that produced a half-maximal response is represented by the EC50 value and the maximum signal measured is the PAM efficacy expressed in % of the EC100 (3 μM) acetylcholine response. • cAMP Assay for M4 Positive Allosteric Modulators (“M4 PAM cAMP” Assay)

Turning to `Cc1cncc(N2CC[C@@H](C(=O)N3Cc4nc(C)c(Cl)c(C)c4C3)C2)n1` [Example 51, (3-chloro-2,4-dimethyl-5,7-dihydropyrrolo[3,4-b]pyridin-6-yl)-[(3R)-1-(6-methylpyrazin-2-yl)pyrrolidin-3-yl]methanone], the values for the concentration giving a half-maximal response (EC50) at human M4 receptor [1] and at human M4 receptor [2] were 591 nM and 363 nM, respectively.

As to `Cc1nc2c(c(C)c1Cl)CN(C(=O)[C@@H]1CCN(c3cc(C(F)F)ncn3)C1)C2` [Example 54, (3-chloro-2,4-dimethyl-5,7-dihydropyrrolo[3,4-b]pyridin-6-yl)-[(3R)-1-[6-(difluoromethyl)pyrimidin-4-yl]pyrrolidin-3-yl]methanone], the concentration for a half-maximal effect (EC50) turned out to be 444 nM on human M4 receptor [1] and 247 nM at human M4 receptor [2].

For the molecule `COCc1nc2c(c(C)c1Cl)CN(C(=O)[C@@H]1CCN(c3ccnc(C(F)F)c3)C1)C2` [Example 57, [3-chloro-2-(methoxymethyl)-4-methyl-5,7-dihydropyrrolo[3,4-b]pyridin-6-yl]-[(3R)-1-[2-(difluoromethyl)-4-pyridyl]pyrrolidin-3-yl]methanone], the EC50 at human M4 receptor [1] came to 283 nM; at human M4 receptor [2], 99 nM.

In the case of `Cc1nc2c(c(C)c1Cl)CN(C(=O)[C@@H]1CCN(c3ncc(C(F)(F)F)cn3)C1)C2` [Example 7, (3-chloro-2,4-dimethyl-5,7-dihydropyrrolo[3,4-b]pyridin-6-yl)-[(3R)-1-[5-(trifluoromethyl)pyrimidin-2-yl]pyrrolidin-3-yl]methanone], the EC50 on human M4 receptor [1] turned out to be 2080 nM; on human M4 receptor [2] it was 1010 nM.

On to `COCc1nc2c(c(C)c1Cl)CN(C(=O)[C@@H]1CCN(c3ccnnc3)C1)C2` [Example 59, [3-chloro-2-(methoxymethyl)-4-methyl-5,7-dihydropyrrolo[3,4-b]pyridin-6-yl]-[(3R)-1-pyridazin-4-ylpyrrolidin-3-yl]methanone], for which the half-maximal effective concentration (EC50) on human M4 receptor [1] was determined as 881 nM; at human M4 receptor [2], 209 nM.

On to `Cc1nc2c(c(C)c1Cl)CN(C(=O)[C@@H]1CCN(c3cncc(C4CC4)n3)C1)C2` [Example 43, (3-chloro-2,4-dimethyl-5,7-dihydropyrrolo[3,4-b]pyridin-6-yl)-[(3R)-1-(6-cyclopropylpyrazin-2-yl)pyrrolidin-3-yl]methanone], for which the EC50 was determined as 7290 nM at human M4 receptor [1] and 1210 nM on human M4 receptor [2].

Consider `Cc1nc2c(c(C)c1Cl)CN(C(=O)[C@@H]1CCN(c3cc(C4CC4)ncn3)C1)C2` [Example 28, (3-chloro-2,4-dimethyl-5,7-dihydropyrrolo[3,4-b]pyridin-6-yl)-[(3R)-1-(6-cyclopropylpyrimidin-4-yl)pyrrolidin-3-yl]methanone], for which the values for the EC50 on human M4 receptor [1] and on human M4 receptor [2] were 259 nM and 350 nM, respectively.

Regarding `Cc1nc2c(c(C)c1Cl)CN(C(=O)[C@@H]1CCN(c3nccc(C(F)(F)F)n3)C1)C2` [Example 50, (3-chloro-2,4-dimethyl-5,7-dihydropyrrolo[3,4-b]pyridin-6-yl)-[(3R)-1-[4-(trifluoromethyl)pyrimidin-2-yl]pyrrolidin-3-yl]methanone], the EC50 at human M4 receptor [1] was found to be 4380 nM; at human M4 receptor [2], 1820 nM.

Consider `Cc1cc(N2CC[C@@H](C(=O)N3Cc4nc(C)c(Cl)c(C)c4C3)C2)ccn1` [Example 5, (3-chloro-2,4-dimethyl-5,7-dihydropyrrolo[3,4-b]pyridin-6-yl)-[(3R)-1-(2-methyl-4-pyridyl)pyrrolidin-3-yl]methanone], for which the EC50 at human M4 receptor [1] turned out to be 616 nM; at human M4 receptor [2], 490 nM.

Turning to `Cc1ncncc1N1CC[C@@H](C(=O)N2Cc3nc(C)c(Cl)c(C)c3C2)C1` [Example 37, (3-chloro-2,4-dimethyl-5,7-dihydropyrrolo[3,4-b]pyridin-6-yl)-[(3R)-1-(4-methylpyrimidin-5-yl)pyrrolidin-3-yl]methanone], the concentration giving a half-maximal response (EC50) on human M4 receptor [1] worked out at 405 nM; at human M4 receptor [2] it was 394 nM.

Take `COc1ccnc(N2CC[C@@H](C(=O)N3Cc4nc(C)c(Cl)c(C)c4C3)C2)n1` [Example 48, (3-chloro-2,4-dimethyl-5,7-dihydropyrrolo[3,4-b]pyridin-6-yl)-[(3R)-1-(4-methoxypyrimidin-2-yl)pyrrolidin-3-yl]methanone]: the figures for the EC50 on human M4 receptor [1] and on human M4 receptor [2] were 8130 nM and 2200 nM, respectively.

On to `Cc1nc2c(c(C)c1Cl)CN(C(=O)[C@@H]1CCN(c3cnc(C4COC4)nc3)C1)C2` [Example 34, (3-chloro-2,4-dimethyl-5,7-dihydropyrrolo[3,4-b]pyridin-6-yl)-[(3R)-1-[2-(oxetan-3-yl)pyrimidin-5-yl]pyrrolidin-3-yl]methanone], for which the EC50 amounted to 603 nM on human M4 receptor [1] and 575 nM at human M4 receptor [2].

For `Cc1cc(N2CC[C@@H](C(=O)N3Cc4nc(C)c(Cl)c(C)c4C3)C2)cnn1` [Example 52, (3-chloro-2,4-dimethyl-5,7-dihydropyrrolo[3,4-b]pyridin-6-yl)-[(3R)-1-(6-methylpyridazin-4-yl)pyrrolidin-3-yl]methanone], the EC50 on human M4 receptor [1] stood at 1160 nM; at human M4 receptor [2], 527 nM.

For `Cc1ccc(N2CC[C@@H](C(=O)N3Cc4nc(C)c(Cl)c(C)c4C3)C2)nn1` [Example 40, (3-chloro-2,4-dimethyl-5,7-dihydropyrrolo[3,4-b]pyridin-6-yl)-[(3R)-1-(6-methylpyridazin-3-yl)pyrrolidin-3-yl]methanone], the EC50 at human M4 receptor [1] came out at 1990 nM; on human M4 receptor [2] it was 1290 nM.

Consider `Cc1nc2c(c(C)c1Cl)CN(C(=O)[C@@H]1CCN(c3ccncc3)C1)C2` [Example 3, (3-chloro-2,4-dimethyl-5,7-dihydropyrrolo[3,4-b]pyridin-6-yl)-[(3R)-1-(4-pyridyl)pyrrolidin-3-yl]methanone], for which the EC50 on human M4 receptor [1] amounted to 769 nM; at human M4 receptor [2], 489 nM.

Take `COCc1nc2c(c(C)c1Cl)CN(C(=O)[C@@H]1CCN(c3cc(C)ncn3)C1)C2` [Example 53, [3-chloro-2-(methoxymethyl)-4-methyl-5,7-dihydropyrrolo[3,4-b]pyridin-6-yl]-[(3R)-1-(6-methylpyrimidin-4-yl)pyrrolidin-3-yl]methanone]: the EC50 worked out at 503 nM at human M4 receptor [1] and 184 nM at human M4 receptor [2].

Regarding `Cc1cc(N2CC[C@@H](C(=O)N3Cc4nc(C)c(Cl)c(C)c4C3)C2)ncn1` [Example 26, (3-chloro-2,4-dimethyl-5,7-dihydropyrrolo[3,4-b]pyridin-6-yl)-[(3R)-1-(6-methylpyrimidin-4-yl)pyrrolidin-3-yl]methanone], the EC50 on human M4 receptor [1] turned out to be 120 nM; at human M4 receptor [2] it was 166 nM.
